Data as given in patent US9688653B2, “Ethoxyphenyl thienyl compounds and methods for the treatment of bacterial infections” (Duke University, priority 2013, dated 2017).
pIC50: −log10 of the molar value.

What was measured:
[1] = test system: Bladder carcinoma 5637 cells; assay: Cytotoxicity counterscreen, CellTiter Glo, 72 hr; assay type: cell-based, human
Protocol: B. Counterscreen: Cytotoxicity Screening for Potential Inhibitors of Bacterial Capsule Biogenesis.
Purpose: This cell-based assay measures the cytotoxicity of compounds in bladder carcinoma 5637 cells using luminescent cell viability assay readout.
Cytotoxicity assay: The cytotoxicity assay was performed as described in Section 6: Appendix. Hit cytotoxicity and the 50% toxic concentration (CC50) was determined and compared to the IC50 to calculate the selectivity index.
Assay Description: Cytotoxicity: Dose response testing (dose range=300-0.58 μM) established the hit cytotoxicity data. Compounds were plated in 384-well microplates in a stacked dose response format using the same doses used in the efficacy dose response. Bladder carcinoma 5637 cells were added to the compounds, and 72 hr later cell viability was measured using CellTiter Glo (38). Hit cytotoxicity and the 50% toxic concentration (TC50) was determined and compared to the IC50 to calculate the therapeutic index. Test compounds are serially diluted in a plate to plate matrix or stacked plate matrix. All 320 compounds in a source plate are diluted together resulting in a 10 point dose response dilution series. It is visualized as a serial dilution series proceeding vertically through a stack of plates with the high dose plate on top and the low dose plate on the bottom.
Control Drug: Hyamine was used as a positive cytotoxic control. All wells contained 0.5% DMSO.
Preparation of Bladder carcinoma 5637 cells: Cells are harvested and resuspended to 80,000 cells per ml in Complete DMEM/F12®.
Endpoint Read: Following the three day incubation period, the assay plates were equilibrated to room temperature for 30 min and an equal volume (30 μL) of Cell Titer-Glo® reagent (Promega Inc.) is added to each well using a WellMate™ (Matrix, Hudson, N.H.) and plates are incubated for an additional 10 min at room temperature. At the end of the incubation, luminescence is measured using a Perkin Elmer Envision™ multi-label reader (PerkinElmer, Wellesley, Mass.) with an integration time of 0.1 s.
Cytotoxicity. Testing was performed essentially as previously described. Concentration-response testing was performed over a range 0.58-300 μM in a […] well plate format. Bladder carcinoma 5637 cells (ATCC HTB-9) were added to the compounds, and 72 hrs later cell viability was measured using CellTiter Glo (Promega). The 50% toxic concentration (TC50) was determined and compared to the IC50 to calculate the therapeutic index. Hyamine was used as a positive cytotoxic control. All wells contained 0.5% DMSO.

[2] = test system: E. coli K1 strain UTI89; assay: microbe, parasite or virus in culture; settings: for % Inhibition at 100 μM: HTS primary screen
Excerpt: The ability of the […] to bind to bacterial capsule, infect, and lyse E. coli UT189 was used as the primary assay to identify the effects of screened compounds on bacterial capsule formation. The phenotypic end-point assay measured the fluorescence generated by cellular processing of Alamar Blue as a direct indicator of cell viability. A total of […] compounds were screened using the primary assay. […] Hits were further evaluated using […] secondary assays for alternative measurement of compound-induced reduction in bacterial capsule formation (secondary assays 1 and 2) and specificity (secondary assays 3 and 4). Confirmed actives with an SI>5 were further investigated and subjected to chemical optimization, followed by secondary assay evaluation. Secondary assays more closely characterized the ability of the compounds to reduce bacterial capsule formation and can be used to examine the mechanism of action of the compounds. The combination of primary assay (to measure capsule reduction), counter assay (for general eukaryotic cell toxicity) and secondary assay (to measure reduction in capsule formation and specificity) were combined to allow a determination of probe efficacy, selectivity, and specificity.
A. Primary Assay: Screening for Inhibitors of Bacterial Capsule Biogenesis.
Primary assay: An end-point assay to measure the amount of K1 phage-induced bacterial cell lysis was employed to determine the compound effect on capsule biogenesis. K1 bacteriophage specifically binds the bacterial capsule during the initial stages of infection. Bacteria without capsule cannot be infected and lysed by the bacteriophage. […] A total of 338,740 compounds were screened at 100 μM in the primary screen Inhibition of phage lysis was calculated relative to the mean of the bacterial (positive) control on each microtiter plate. […] For calculation of S/B/Z value, and CV, the following formulae (in which SD stands for standard deviation) were used: S/B=mean signal/mean background; Z=1-3SD of sample+3SD of control mean of sample−mean of control; % CV=(SD mean signal/mean signal)×100.
IC50 values were calculated using a 4 parameter Levenburg-Marquardt algorithm, with the maximum and minimum locked at 0 and 100 respectively.
Primary assay: The primary assay was conducted in the 1,536 well plate format. Bacterial cultures of E. coli K1 strain UTI89 (cystitis isolate) and isogenic capsule mutant strains (as controls for phage infection) were grown and prepared at the screening center immediately prior to use. Overnight starting cultures of UTI89 were grown at 37° C., and inoculated into 1 liter of LB (starting OD600˜0.03), which was sufficient for screening 40 plates (including ˜10% waste) and ˜40,000 compounds as single points.
Control wells contained UTI89 (wt K1) with 0.5% DMSO as a simulated positive control; UTI89 with 0.5% DMSO and tetracycline for a negative growth control; and media plus vehicle control. 50 mL of LB Broth was inoculated with stock 150 μL E. coli UT189 and grown overnight at 37° C. The next day, cultures were diluted 1:75 in 1 L of LB Broth containing 0.5% DMSO. 3 μL of this culture was added to each plate well, and plates were incubated, inverted, at 37° C. for 2 hr. The K1F bacteriophage stock was diluted 1:8 in LB Broth containing 0.5% DMSO, and 1.5 μL of diluted phage (or media only) was added to the pre-plated test compound wells and appropriate control wells. The plates were centrifuged briefly, and then were incubated, inverted, at 37° C. for an additional 2 hr. Afterward, Alamar Blue reagent (Invitrogen, #DAL1100) was diluted 1:2 with LB broth and 1 μL was added to each plate well.

[3] = test system: E. coli K1 strain UTI89; assay: Secondary assay 2: T7 phage-mediated lysis assay; assay type: cell-based, Escherichia coli; settings: read-out: T7 phage IC50
Excerpt: D. Secondary Assay 2: Screening for Inhibitors of Bacterial Capsule Biogenesis—T7 Lysis Inhibition
Purpose: This secondary assay measures the compound mechanistic specificity for inhibition of bacterial capsule formation and excludes inhibitors of phage replication using a different bacteriophage (T7). In this assay, an increase in phage-induced lysis correlates to a decrease in capsule formation.
Purpose: This secondary assay measures the compound mechanistic specificity for inhibition of bacterial capsule formation using a different bacterial phage (T7). In this assay, an increase in phage-induced lysis correlates to a decrease in capsule formation.
Assay Description: T7 phage-mediated lysis assay: This assay determined if the mechanism of action of the compound is inhibition of phage infectivity or replication. The T7 phage has a nearly identical genome to K1F, without encoding an endosialidase. Its cycle of replication is similar to that of K1F as well. However, T7 entry into E. coli is inhibited by K capsules. This secondary assay was conducted in the 96 well plate format. […] Compounds were added in quadruplicate to plates in a concentration dependent manner in the range of 100-0.39 μM, followed by addition of 100 μL of bacterial culture. 1% DMSO (final well concentration) was included. The plates were tape sealed and shaken vigorously for 1.5 hr. An initial OD600 reading was measured to identify compounds that cause growth retardation or bacterial killing in the absence of phage. Next, T7 phage (5 μL) was added to all of the test wells. The plates were resealed and shaken vigorously at 37° C., and measurements of OD600 for phage-mediated lysis were taken after 3 hr. True inhibitors of capsule yielded bacteria that were susceptible to T7 phage and lysed within 2 hr of the addition of phage. […] The positive control drug C7 (100 μM final well concentration) was used in this screen.
T7 phage counter assay. This secondary assay was performed as previously described and was used to distinguish compounds with phage inhibitory effects from true polysaccharide capsule inhibitors. […] Thus, the presence of a capsule inhibits T7-mediated lysis. In this assay, an increase in phage-induced lysis correlates to a decrease in capsule formation. True inhibitors of capsule yielded bacteria that were susceptible to T7 phage and lysed within 2 hr of the addition of phage. […] The positive control molecule C7 (100 μM final well concentration) was used in this screen.

[4] = read-out: K1 phage IC50, first round of synthetic analogues, n = 3
[5] = first round of synthetic analogues, n = 2
[6] = read-out: K1 phage IC50 (inhibition of K1 capsule formation)

O=C(Nc1cc(-c2ccc(C(F)(F)F)cc2)sc1C(=O)O)c1ccc(Br)s1 [compound 53470428]
pIC50 [1]: 4.41 | pIC50 [2, 4]: < 4.30 | pIC50 [3, 5]: 4.85

Cc1ccc(-c2cc(NC(=O)c3ccc(Br)s3)c(C(=O)O)s2)cc1 [compound 53470429]
pIC50 [1]: 4.19 | pIC50 [2, 4]: < 4.30 | pIC50 [3, 5]: 4.97

O=C(O)c1sc(-c2ccc(OCC(F)(F)F)cc2)cc1NC(=O)c1c(F)cccc1F [CID 56643002]
pIC50 [2, 6]: 5.54

CCOc1ccc(-c2cc(NC(=O)c3c(F)cccc3F)c(C(=O)OC)s2)cc1 [compound 16012549]
pIC50 [1]: < 3.52 | pIC50 ([2]; read-out: K1 phage IC50, purchased analogue series, n = 3): < 4.00

COc1ccc(-c2cc(NC(=O)c3c(F)cccc3F)c(C(=O)O)s2)cc1 [CID 53470430]
pIC50 [2, 6]: < 4.00

CCCCOc1ccc(-c2cc(NC(=O)c3c(F)cccc3F)c(C(=O)O)s2)cc1 [CID 56643007]
pIC50 [2, 6]: > 6.11

COC(=O)c1sc(-c2ccccc2)cc1NC(=O)c1ccccc1 [compound 6710528]
% Inhibition at 100 μM [2]: 4.18%

[N-]=[N+]=NCCOc1ccc(-c2cc(NC(=O)c3c(F)cccc3F)c(C(=O)O)s2)cc1 [CID 56643025]
pIC50 ([2]; Escherichia coli, read-out: K1 phage IC50 (inhibition of K1 capsule formation)): ~4.77

CCOc1ccc(-c2cc(NC(=O)c3c(F)cccc3F)c(C(=O)OC)s2)cc1 [CID 16012549]
pIC50 [2, 6]: < 4.00

CCOc1ccc(-c2cc(NC(=O)c3ccc(Br)o3)c(C(=O)O)s2)cc1 [CID 23602086, 3-(5-Bromofuran-2-carboxamido)-5-(4-ethoxyphenyl)thiophene-2-carboxylic acid]
pIC50 [2, 6]: 5.47 | pIC50 ([3]; Escherichia coli): > 5.00

COC(=O)c1sc(-c2ccc(Cl)cc2)cc1NC(=O)c1ccccc1C(=O)O [compound 2814791]
% Inhibition at 100 μM [2]: −0.17%

COC(=O)c1sc(-c2ccccc2)cc1NC(=O)c1ccc(F)cc1 [compound 3669658]
% Inhibition at 100 μM [2]: 2.58%

COC(=O)c1sc(-c2ccccc2)cc1NC(C)=O [compound 4114774]
% Inhibition at 100 μM [2]: 0.68%

O=C(O)c1sc(-c2ccc(OCCCC(F)(F)F)cc2)cc1NC(=O)c1c(F)cccc1F [CID 56643024]
pIC50 [2, 6]: 4.99
